# Tested on: hepatocytes
# Test: Seq-Well scRNA-Seq of hepatocytes after APAP overdose (signature scores, DEG vs untreated)
# Type: in vivo, mouse
compound,measurement,setting,value
"CC(=O)Nc1ccc(O)cc1 [APAP, acetaminophen]",Slc25a10 avg_logFC,A96 vs untreated (UT),0.2508
same,Slc25a10 pct.1,A96 vs untreated (UT),0.701
same,Slc25a13 avg_logFC,A96 vs untreated (UT),0.2573
same,Slc25a13 pct.1,A96 vs untreated (UT),0.786
same,Slc25a20 avg_logFC,A96 vs untreated (UT),0.3215
same,Slc25a20 pct.1,A96 vs untreated (UT),0.671
same,Slc25a47 avg_logFC,A96 vs untreated (UT),0.2777
same,Slc25a47 pct.1,A96 vs untreated (UT),0.96
same,Slc27a2 avg_logFC,A96 vs untreated (UT),0.3931
same,Slc27a2 pct.1,A96 vs untreated (UT),0.988
same,Slc27a5 avg_logFC,A96 vs untreated (UT),0.2567
same,Slc27a5 pct.1,A96 vs untreated (UT),0.958
same,Slc40a1 avg_logFC,A96 vs untreated (UT),0.336
same,Slc40a1 pct.1,A96 vs untreated (UT),0.551
same,Slco1a4 avg_logFC,A96 vs untreated (UT),0.4652
same,Slco1a4 pct.1,A96 vs untreated (UT),0.507
same,Snord13 avg_logFC,A96 vs untreated (UT),0.2659
same,Snord13 pct.1,A96 vs untreated (UT),0.386
same,Snord118 avg_logFC,A96 vs untreated (UT),0.5783
same,Snord118 pct.1,A96 vs untreated (UT),0.564
same,St3gal5 avg_logFC,A96 vs untreated (UT),0.3862
same,St3gal5 pct.1,A96 vs untreated (UT),0.71
same,Sult1a1 avg_logFC,A96 vs untreated (UT),0.522
same,Sult1a1 pct.1,A96 vs untreated (UT),0.881
same,Sult1d1 avg_logFC,A96 vs untreated (UT),0.4421
same,Sult1d1 pct.1,A96 vs untreated (UT),0.855
same,Tat avg_logFC,A96 vs untreated (UT),0.2529
same,Tat pct.1,A96 vs untreated (UT),0.981
same,Tgoln1 avg_logFC,A96 vs untreated (UT),0.3801
same,Tgoln1 pct.1,A96 vs untreated (UT),0.756
same,Tmbim6 avg_logFC,A96 vs untreated (UT),0.2624
same,Tmbim6 pct.1,A96 vs untreated (UT),0.988
same,Tmed5 avg_logFC,A96 vs untreated (UT),0.3754
same,Tmed5 pct.1,A96 vs untreated (UT),0.714
same,Tmem106b avg_logFC,A96 vs untreated (UT),0.3285
same,Tmem106b pct.1,A96 vs untreated (UT),0.727
same,Tob1 avg_logFC,A96 vs untreated (UT),0.3731
same,Tob1 pct.1,A96 vs untreated (UT),0.649
same,Trp53inp1 avg_logFC,A96 vs untreated (UT),0.3647
same,Trp53inp1 pct.1,A96 vs untreated (UT),0.551
same,Tsc22d3 avg_logFC,A96 vs untreated (UT),0.3425
same,Tsc22d3 pct.1,A96 vs untreated (UT),0.534
same,Ttpa avg_logFC,A96 vs untreated (UT),0.6266
same,Ttpa pct.1,A96 vs untreated (UT),0.98
same,Ttr avg_logFC,A96 vs untreated (UT),0.3459
same,Ttr pct.1,A96 vs untreated (UT),1
same,Ubc avg_logFC,A96 vs untreated (UT),0.3578
same,Ubc pct.1,A96 vs untreated (UT),0.968
same,Ubr3 avg_logFC,A96 vs untreated (UT),0.2529
same,Ubr3 pct.1,A96 vs untreated (UT),0.585
same,Uhrf1bp1l avg_logFC,A96 vs untreated (UT),0.2559
same,Uhrf1bp1l pct.1,A96 vs untreated (UT),0.415
same,Upp2 avg_logFC,A96 vs untreated (UT),−0.2859
same,Upp2 pct.1,A96 vs untreated (UT),0.545
same,Uroc1 avg_logFC,A96 vs untreated (UT),0.3074
same,Uroc1 pct.1,A96 vs untreated (UT),0.726
same,Wbp1l avg_logFC,A96 vs untreated (UT),0.3456
same,Wbp1l pct.1,A96 vs untreated (UT),0.789
same,Zfp36l1 avg_logFC,A96 vs untreated (UT),0.3298
same,Zfp36l1 pct.1,A96 vs untreated (UT),0.601
same,Zfp91 avg_logFC,A96 vs untreated (UT),0.3741
same,Zfp91 pct.1,A96 vs untreated (UT),0.693
same,Zfp683 avg_logFC,A96 vs untreated (UT),0.3027
same,Zfp683 pct.1,A96 vs untreated (UT),0.476
same,mt-Co1 avg_logFC,A96 vs untreated (UT),−0.8459
same,mt-Co1 pct.1,A96 vs untreated (UT),0.983
same,mt-Co2 avg_logFC,A96 vs untreated (UT),−1.033
same,mt-Co2 pct.1,A96 vs untreated (UT),0.313
same,mt-Co3 avg_logFC,A96 vs untreated (UT),−1.046
same,mt-Co3 pct.1,A96 vs untreated (UT),0.213
same,mt-Cytb avg_logFC,A96 vs untreated (UT),−0.7105
same,mt-Cytb pct.1,A96 vs untreated (UT),0.99
same,mt-Nd1 avg_logFC,A96 vs untreated (UT),−0.5843
same,mt-Nd1 pct.1,A96 vs untreated (UT),0.996
same,mt-Nd2 avg_logFC,A96 vs untreated (UT),−0.7197
same,mt-Nd2 pct.1,A96 vs untreated (UT),0.994
same,mt-Nd4 avg_logFC,A96 vs untreated (UT),−0.8488
same,mt-Nd4 pct.1,A96 vs untreated (UT),0.986
same,mt-Nd5 avg_logFC,A96 vs untreated (UT),−0.573
same,mt-Nd5 pct.1,A96 vs untreated (UT),0.964
same,mt-Rnr1 avg_logFC,A96 vs untreated (UT),−0.3398
same,mt-Rnr1 pct.1,A96 vs untreated (UT),1
same,mt-Rnr2 avg_logFC,A96 vs untreated (UT),−0.3332
same,mt-Rnr2 pct.1,A96 vs untreated (UT),1
same,mt-Tp avg_logFC,A96 vs untreated (UT),0.3085
same,mt-Tp pct.1,A96 vs untreated (UT),0.329
same,Acaa1b avg_logFC,APAP composite vs UT,−0.8508
same,Agt avg_logFC,APAP composite vs UT,0.5205
same,Ahsg avg_logFC,APAP composite vs UT,0.2925
same,Akr1c6 avg_logFC,APAP composite vs UT,−1.586
same,Ang avg_logFC,APAP composite vs UT,0.7089
same,Angptl3 avg_logFC,APAP composite vs UT,0.7089
same,Apoa2 avg_logFC,APAP composite vs UT,−0.5455
same,Apoc1 avg_logFC,APAP composite vs UT,−0.8713
same,Apoc2 avg_logFC,APAP composite vs UT,0.7821
same,Apoe avg_logFC,APAP composite vs UT,−0.4213
same,Apoh avg_logFC,APAP composite vs UT,0.4118
same,Cdo1 avg_logFC,APAP composite vs UT,0.517
same,Ces1c avg_logFC,APAP composite vs UT,0.4668
same,Chchd1 avg_logFC,APAP composite vs UT,0.7207
same,Chchd10 avg_logFC,APAP composite vs UT,0.7207
